Assay results as given in patent US9365534B2, “Arylated camphenes, processes for their preparation and uses thereof” (Yissum Research Development Company of the Hebrew …, priority 2009, dated 2016).
Read-outs that look alike come from different tables or passages of the source.

Assays:
[1] = biological target: T1, human CB2 receptor (Homo sapiens (Human), UniProt P34972); assay: Membrane competition binding assay with [3H]-CP 55,940, CHO-CB2 membranes
Description: (§1) The cDNA clones for human HA-tagged CB1 and CB2 receptors were obtained from the Missouri S&T cDNA Resource Center (www.cdna.org) in cloning vector pcDNA3.1+. The vector containing the human CB2 receptor was transfected directly into CHO-KI cells obtained from ATCC. The HA-tagged human CB1 receptor sequence was subcloned into the pef4-V5-HisA vector with Kpn1 and Pme1 restriction enzymes and subsequently transfected into CHO-K1 cells. Cells were clonally isolated by limited dilution and screened by immunocytochemistry for expression of the HA tag.
(§2) Cells were maintained in DMEM/F12 media supplemented with 10% fetal bovine serum (FBS), 100 units/ml penicillin and 100 μg/ml streptomycin and 2 mM L-glutamine. Transfected cell lines were maintained with additional 150 ug/ml zeocin for pEF HA-CB1 transfected cells and 500 ug/ml G-418 for pcDNA HA-CB2 transfected cells (all reagents obtained from Invitrogen).
(§3) Cells were grown to confluence and harvested in ice cold phosphate buffered saline with 5 mM EDTA. Cells were spun at 200×g for 10 min and frozen at −80° C. until required. Cell pellets were thawed with cold 0.32 M sucrose and homogenised with a glass homogeniser. The homogenate was spun at 1000×g for 10 min at 4° C. and the supernatant spun in a Sorvall ultracentrifuge for 30 min at 100,000×g. The pellet was then washed in ice cold water and re-spun twice more. The final pellet was resuspended in 50 mM Tris pH 7.5, 0.5 mM EDTA. Protein concentration was determined using the Dc protein assay kit (BioRad, Hercules, Calif., USA).
(§4) Membranes (5-10 μg) were incubated with radioligand and a range of concentrations of test compounds in binding buffer (50 mM Tris pH 7.4, 5 mM MgCl2, 1 mM EDTA) with 0.5% (w/v) bovine serum albumin (BSA) (ICP Bio, New Zealand), at 30° C. for 60 min. Stock solutions of putative cannabinoid ligands were prepared in dimethyl sulfoxide to a concentration of 10 mM. Six different final concentrations of compounds were used ranging from 50 μM to 0.1 nM. […] Assays were terminated by addition of 2 ml ice cold binding buffer and filtration through GF/C filters (Whatman) pre-soaked in cold binding buffer, followed by two washes in the same buffer.
(§5) Radioactivity was determined by incubation of filters with Irgasafe scintillation fluid (PerkinElmer) and scintillation counting in a Wallac Trilux using Microbeta Trilux software. Data was analysed using the Prism 4.02 programme (GraphPad Software, San Deigo, Calif., USA).
(§6) All data was analyzed using Prism 4.02. For binding data the Ki was determined from IC50 values derived from competition binding data fitted with one site competition non-linear regression analysis by Prism 4.02 using the Kd values reported above.

[2] = biological target: T2, human CB1 receptor (Homo sapiens (Human), UniProt P21554); assay: Membrane competition binding assay with [3H]-CP 55,940, CHO-CB1 membranes; details: CHO-CB1 cellular membranes, 2.5 nM [3H]-CP 55,940; read-out: Competition Binding Assay CB1 Receptor Ki
T2 sequence (P21554 whole entry): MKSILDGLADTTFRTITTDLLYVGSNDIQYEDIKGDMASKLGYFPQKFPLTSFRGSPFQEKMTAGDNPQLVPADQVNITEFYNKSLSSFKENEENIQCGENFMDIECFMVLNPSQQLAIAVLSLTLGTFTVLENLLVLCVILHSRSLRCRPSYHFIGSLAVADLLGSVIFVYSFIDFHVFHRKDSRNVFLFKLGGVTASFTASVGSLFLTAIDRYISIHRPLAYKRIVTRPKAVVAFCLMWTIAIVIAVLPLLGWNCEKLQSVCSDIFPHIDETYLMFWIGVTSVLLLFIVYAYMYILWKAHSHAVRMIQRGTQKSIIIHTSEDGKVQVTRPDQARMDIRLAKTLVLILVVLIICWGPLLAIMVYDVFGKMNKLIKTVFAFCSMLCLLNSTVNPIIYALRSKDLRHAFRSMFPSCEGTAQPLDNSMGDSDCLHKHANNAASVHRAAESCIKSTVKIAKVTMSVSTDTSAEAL
Description: as §1, §2, §3, §4, §5, §6

[3] = biological target: T2, human CB1 receptor; assay: cell-based; details: whole cells expressing CB1, 50 μM forskolin; read-out: cAMP Assay CB1 Receptor IC50
Description: as §1, §2
(§7) Cells were seeded at a density of 10,000 cells per well in poly-L-lysine treated 96-well culture plates (BD Biosciences). The following day wells were incubated with 40 μl DMEM/F12 containing 0.5% (w/v) BSA and 0.5 mM 3-isobutyl-1-methylxanthine (Sigma-Aldrich) for 30 minutes prior to 15 min stimulation with 50 μM forskolin (Tocris Cookson) and varying concentrations of indicated compounds at 37° C., 5% CO2. Assays were stopped by removal of media and addition of 100% ice cold ethanol. Plates were then frozen for a minimum of two hours before complete evaporation of ethanol. The well contents were then reconstituted in 50 μl cAMP assay buffer (20 mM HEPES pH 7.5 and 5 mM EDTA). Half of the reconstituted sample was transferred to round bottom 96-well plates (Greiner Bio-One GmbH) with 50 μl 0.01% w/v PKA (cAMP dependent protein kinase (Sigma-Aldrich) in 1 mM Na citrate pH 6.5 with 2 mM dithiothreitol) and 25 μl [^3H]-cAMP (at 22 nM in cAMP assay buffer) (GE Healthcare, Life Sciences). This was allowed to equilibrate for 3-18 hours. Following this a charcoal slurry (5% (w/v) activated charcoal and 0.2% (w/v) BSA in cAMP assay buffer) was added to the samples and the plates centrifuged at 3000×g, 4° C. for 5 min. Radioactive counts within the supernatant were then determined as described for competition binding assays.
(§8) pIC50 values were determined from cAMP assays by fitting a sigmoidal concentration response curve using Prism 4.02.

[4] = biological target: T1, human CB2 receptor; assay: cell-based
Description: as §1, §2, §7, §8

[5] = biological target: T1, human CB2 receptor; assay: Membrane [35S]GTPγS binding assay; type: biochemical; details: for Emax: read-out: [35S]GTPγS Emax
Experimental: Human CB2 expressing CHO-K1 membranes (5 μg per incubation mixture) were diluted in 50 mM Tris-HCl (pH 7.5) and 0.5 mM EDTA and added to HU compounds in a pre-mixed incubation cocktail. Final incubation concentrations were 55 mM Tris-HCl (pH 7.4), 1 mM EDTA, 100 mM NaCl, 5 mM MgCl2, 0.5% BSA, 50 μM GDP, 0.2 nM [^35S]GTPγS (PerkinElmer) with varied HU compound concentration and 5 μg membrane. Incubations were continued for 60 minutes at 30° C. in a shaking water bath. Assays were terminated by addition of 2 ml ice cold wash buffer (50 mM Tris-HCl, pH 7.5 and 5 mM MgCl2) and filtration through pre-soaked GF/C filters (Whatman), followed by two further washes. adioactivity was determined as described for competition binding assays.
Data was analyzed using the Prism 4.02 programme (GraphPad Software, San Deigo, Calif., USA). IC50 and EC50 values, as determined from sigmoidal curves, were generated from drug concentrations plotted in log scale. […] It is possible to display data as an average, plus or minus the standard error of the mean in log form, however, this is not easily interpreted or compared to other values. It was therefore elected to calculate the 95% confidence interval for the mean value in log form and then convert the lower limit, mean and upper limit into the molar (linear) scale. […] Two-tailed t-tests for statistical analysis between enantiomeric pairs of compounds were performed for CB2 Ki values. The Pearson value, an indication of linearity, was determined for Ki and IC50 or EC50 results obtained for CB2 receptors in binding, cAMP or GTPγS experiments, respectively.

[6] = test system: closed head injury (CHI); assay: Closed head injury (CHI) model, neurological severity score, Sabra mice; type: in vivo; details: SR144528 1 mg/kg i.p. 1 h after CHI, 24 h to 14 day, vs vehicle control
Experimental: The study was conducted according to the guidelines of the Institutional Animal Care Committee of the Hebrew University. Male Sabra mice weighing 35 to 50 g were used in all experiments. Animals were kept under controlled light conditions with a 12 h/12 h light/dark cycle. Experimental closed head injury (CHI) was induced using a modified weight drop device developed in our laboratory as described previously (Chen et al., 1996). At 1 h after CHI, the functional status of the mice was evaluated according to a set of 10 neurobehavioral tasks, namely the neurological severity score (NSS). This score is based on the ability of the mice to perform 10 different tasks (Beni-Adani et al., 2001) that evaluate their motor ability, balance, and alertness. One point is given for failing to perform a task. […] A score of 10 reflects maximal neurologic impairment, and a decrease of NSS during the recovery period indicates partial recovery of function.
Data was analyzed using the Prism 4.02 programme (GraphPad Software, San Deigo, Calif., USA). The data are expressed as mean±SEM and statistical significance was assessed with one way analysis of variance (ANOVA) followed by a Dunnett's post-hoc analysis for TNF-α levels. Nonparametric NSS values were compared between the two groups at each time point.
In this study four groups of mice were subjected to CHI (n=10/group and control n=9), after which the following agents were administered: • Group 1 (Control): Vehicle only (ethanol:cremophor:saline at ratio of 1:1:18), 1 h after CHI. • Group 2: HU-910, 0.1 mg/kg, dissolved in vehicle (1:1:18 ethanol:cremophor:saline), i.p. 1 h after CHI. • Group 3: HU-910, 1.0 mg/kg, dissolved in vehicle (1:1:18 ethanol:cremophor:saline), i.p. 1 h after CHI. • Group 4: HU-910, 10.0 mg/kg, dissolved in vehicle (1:1:18 ethanol:cremophor:saline), i.p. 1 h after CHI.
In this study four groups of mice were subjected to CHI (n=9/group), after which the following agents were administered: • Group 1 (Control): Vehicle only (ethanol:cremophor:saline at ratio of 1:1:18), 1 h after CHI. • Group 2: HU-910, 10 mg/kg, dissolved in vehicle (1:1:18 ethanol:cremophor:saline), i.p. 1 h after CHI. • Group 3: Specific CB2 antagonist SR144528 (N-[(1S)-endo-1,3,3-trimethylbicyclo[2.2.1]heptan-2-yl]-5-(4-chloro-3-methylphenyl)-1-(4-methylbenzyl)pyrazole-3 carboxamide), (see M. Rinaldi-Carmona, et al. J. Pharmacol. Exp. Ther. 284 (1998) 644-650), 1 mg/kg, i.p. 1 h after CHI. • Group 4: Specific CB2 antagonist (SR144528, N-[(1S)-endo-1,3,3-trimethylbicyclo[2.2.1]heptan-2-yl]-5-(4-chloro-3-methylphenyl)-1-(4-methylbenzy)pyrazole-3 carboxamide), 1 mg/kg, i.p. 1 h after CHI and HU-910 10 mg/kg administered 10 min after administration of antagonist.
In this study four groups of mice were subjected to CHI (n=7-8/group), after which the following agents were administered: • Group 1 (Control): Vehicle only (Dimethyl Sulfoxide (DMSO): Tween 80: Saline at ratio of 1:1:18), i.p. 1 h after CHI. • Group 2: HU-910, 10 mg/kg, dissolved in Vehicle, i.p. 1 h after CHI. • Group 3: Specific CB2 antagonist/inverse agonist AM630 (6-Iodo-2-methyl-1-[2-(4-morpholinyl)ethyl]-1H-indol-3-yl](4-methoxyphenyl)methanone) (Ross et al. 1999)), dissolved in Vehicle, 1 mg/kg, i.p. 1 h after CHI and HU-910, dissolved in Vehicle, 10 mg/kg administered 10 min after administration of antagonist/inverse agonist. • Group 4: Specific CB2 antagonist/inverse agonist AM630 (6-Iodo-2-methyl-1-[2-(4-morpholinyl)ethyl]-1H-indol-3-yl](4-methoxyphenyl)methanone), dissolved in Vehicle, 1 mg/kg, i.p. 1 h after CHI

[7] = CHO, read-out: cAMP Assay CB2 Receptor Emax
[8] = read-out: cAMP Assay CB2 Receptor IC50
[9] = CHO-CB2 cellular membranes, 2.5 nM [3H]-CP 55,940
[10] = CHO; read-out: cAMP Assay CB2 Receptor Emax
[11] = whole cells expressing CB2, 50 μM forskolin; read-out: cAMP Assay CB2 Receptor IC50
[12] = human CB2 CHO-K1 membranes, mean (95% confidence interval), n = 5

In the case of `CCCCCCC(C)(C)c1cc(OC)c(C2=C[C@@H]3CC[C@@]2(CO)C3(C)C)c(OC)c1` [HU-909, (1R,4S)-(2-(2,6-dimethoxy-4-(2-methyloctan-2-yl)phenyl)-7,7-dimethylbicyclo[2.2.1]hept-2-en-1-yl)methanol], the Ki [1] is reported as 56.8 nM, the Ki [2] is reported as 11.7 µM and the IC50 [3] is reported as over 50 µM. It also gave an Emax [4, 7] of 95 ± 6%, an IC50 [4, 8] of 425 nM and an EC50 [5] of 136 nM. For the same compound, the Emax [5] was 76 ± 7%.
For `CCCCCCC(C)(C)c1cc(OC)c(C2=C[C@@H]3CC[C@@]2(C(=O)OC)C3(C)C)c(OC)c1` [HU-911, (1R,4S)-methyl-2-(2,6-dimethoxy-4-(2-methyloctan-2-yl)phenyl)-7,7-dimethylbicyclo[2.2.1]hept-2-ene-1-carboxylate], the Ki [1, 9] was 84.6 nM, the Ki [2] was over 50 µM and the IC50 [3] was over 50 µM. The Emax [4, 10] was 86 ± 9%, the IC50 [4, 11] was 385 nM and the EC50 [5, 12] was 126 nM. The Emax [5] was 94 ± 4%.
Work on `CCCCCCC(C)(C)c1cc(OC)c(C2=C[C@@H]3CC[C@@]2(C(=O)O)C3(C)C)c(OC)c1` [HU-913, (1R,4S)-2-(2,6-dimethoxy-4-(2-methyloctan-2-yl)phenyl)-7,7-dimethylbicyclo[2.2.1]hept-2-ene-1-carboxylic acid] yielded a Ki [1] of 81.5 nM, a Ki [2] of over 50 µM and an IC50 [3] of over 50 µM. The Emax [4, 7] was 101 ± 11%, the IC50 [4, 8] was 330 nM and the EC50 [5] was 344 nM. For the same compound, the Emax [5] was 98 ± 3%.
With `CCCCCCC(C)(C)c1cc(OC)c(C2C(=O)[C@]3(C)CC[C@H]2C3(C)C)c(OC)c1` (stereo partly drawn) [HU-926, (1R,4R)-3-(2,6-dimethoxy-4-(2-methyloctan-2-yl)phenyl)-1,7,7-trimethylbicyclo[2.2.1]heptan-2-one] the Ki [1, 9] was 106 nM, the Ki [2] was over 50 µM and the IC50 [3] was over 50 µM. The Emax [4, 10] was 100 ± 13%, the IC50 [4, 11] was 321 nM and the EC50 [5, 12] was 185 nM. For the same compound, the Emax [5] was 51 ± 6%.
`CCCCCCC(C)(C)c1cc(OC)c(C2C(O)[C@]3(C)CC[C@H]2C3(C)C)c(OC)c1` (stereo partly drawn) [HU-928, (1R,4R)-3-(2,6-dimethoxy-4-(2-methyloctan-2-yl)phenyl)-1,7,7-trimethylbicyclo[2.2.1]heptan-2-ol] gave a Ki [1] of 230 nM, a Ki [2] of over 50 µM and an IC50 [3] of over 50 µM. It also gave an Emax [4, 7] of 101 ± 11%, an IC50 [4, 8] of 925 nM and an EC50 [5] of 577 nM. For the same compound, the Emax [5] was 95 ± 5%.
For “N-[(1S)-endo-1,3,3-trimethylbicyclo[2.2.1]heptan-2-yl]-5-(4-chloro-3-methylphenyl)-1-(4-methylbenzyl)pyrazole-3 carboxamide [SR144528, reference compound]”, the “extent of recovery ΔNSS, antagonist alone” value [6] was “recovery was significantly reduced”.
